The test system of data set [1] is qsc100 (Peptide synthetase). Briefly: Acyl-HSL induction of β-galactosidase in qsc100 mutant. Format: cell-based, Pseudomonas aeruginosa. Particulars: qsc100, Class I; 3OC12-HSL 2 μM, C4-HSL 5 μM.
For the next data set, the system named is qsc101. Nature of the data set: Acyl-HSL induction of β-galactosidase in qsc101 mutant. Format: cell-based, Pseudomonas aeruginosa. Particulars: qsc101, Class I; 3OC12-HSL 2 μM, C4-HSL 5 μM.
In data set [2] the test system is qsc104 (Polyamine binding protein). Nature of the data set: Acyl-HSL induction of β-galactosidase in qsc104 mutant. The data set is classed as cell-based, Pseudomonas aeruginosa. To be noted: qsc104, Class I; 3OC12-HSL 2 μM, C4-HSL 5 μM.
A further data set has as its system qsc107. Nature of the data set: Acyl-HSL induction of β-galactosidase in qsc107 mutant. Format: cell-based, Pseudomonas aeruginosa. Particulars: qsc107, Class I; 3OC12-HSL 2 μM, C4-HSL 5 μM.
For another data set, the system named is qsc108 (ORF 5). Briefly: Acyl-HSL induction of β-galactosidase in qsc108 mutant. Format: cell-based, Pseudomonas aeruginosa. Particulars: qsc108, Class II; 3OC12-HSL 2 μM, C4-HSL 5 μM.
The test system of data set [3] is qsc111 (Pyoverdine synthetase D). Briefly: Acyl-HSL induction of β-galactosidase in qsc111 mutant. The data set is classed as cell-based, Pseudomonas aeruginosa. To be noted: qsc111, Class II; 3OC12-HSL 2 μM, C4-HSL 5 μM.
The subject of data set [4] is qsc112A&B (Aculeacin A acylase). Nature of the data set: Acyl-HSL induction of β-galactosidase in qsc112A&B mutants. The data set is classed as cell-based, Pseudomonas aeruginosa. Particulars: Class II, 3OC12-HSL 2 μM, C4-HSL 5 μM.
The subject of data set [5] is qsc113 (Trransmembrane protein). Nature of the data set: Acyl-HSL induction of β-galactosidase in qsc113 mutant. The data set is classed as cell-based, Pseudomonas aeruginosa. Particulars: qsc113, Class II; 3OC12-HSL 2 μM, C4-HSL 5 μM.
In another data set the test system is qsc114. Nature of the data set: Acyl-HSL induction of β-galactosidase in qsc114 mutant. The data set is classed as cell-based, Pseudomonas aeruginosa. Particulars: qsc114, Class II; 3OC12-HSL 2 μM, C4-HSL 5 μM.
The subject of data set [6] is qsc120 (Chloramphenicol resistance). Nature of the data set: Acyl-HSL induction of β-galactosidase in qsc120 mutant. The data set is classed as cell-based, Pseudomonas aeruginosa. Particulars: qsc120, Class III; 3OC12-HSL 2 μM, C4-HSL 5 μM.
Data set [7] has as its system qsc121 (3-Oxoacyl ACP synthase). Briefly: Acyl-HSL induction of β-galactosidase in qsc121 mutant. The data set is classed as cell-based, Pseudomonas aeruginosa. To be noted: qsc121, Class III; 3OC12-HSL 2 μM, C4-HSL 5 μM.
For data set [8], the system named is qsc123 (9-Cis retinol dehydrogenase). Briefly: Acyl-HSL induction of β-galactosidase in qsc123 mutant. Particulars: qsc123, Class III; 3OC12-HSL 2 μM, C4-HSL 5 μM. The data set is classed as cell-based, Pseudomonas aeruginosa.
Data set [9] relates to qsc124A&B (Pyoverdine synthetase D). Nature of the data set: Acyl-HSL induction of β-galactosidase in qsc124A&B mutants. The data set is classed as cell-based, Pseudomonas aeruginosa. To be noted: Class III, 3OC12-HSL 2 μM, C4-HSL 5 μM.
Data set [10] has as its system qsc125 (Zeaxanthin synthesis). Nature of the data set: Acyl-HSL induction of β-galactosidase in qsc125 mutant. The data set is classed as cell-based, Pseudomonas aeruginosa. To be noted: qsc125, Class III; 3OC12-HSL 2 μM, C4-HSL 5 μM.
The next data set has as its system qsc127. Nature of the data set: Acyl-HSL induction of β-galactosidase in qsc127 mutant. Format: cell-based, Pseudomonas aeruginosa. Particulars: qsc127, Class III; 3OC12-HSL 2 μM, C4-HSL 5 μM.
The subject of data set [11] is qsc128 (Hydrogen cyanide synthase HcnB). Format: cell-based, Pseudomonas aeruginosa. Particulars: qsc128, Class III; 3OC12-HSL 2 μM, C4-HSL 5 μM.
In another data set the test system is qsc131 (PhzC). Nature of the data set: Acyl-HSL induction of β-galactosidase in qsc131 mutant. To be noted: qsc131, Class III; 3OC12-HSL 2 μM, C4-HSL 5 μM. Format: cell-based, Pseudomonas aeruginosa.
Data set [12] concerns qsc132A&B (Unknown (B. pertusis)). Briefly: Acyl-HSL induction of β-galactosidase in qsc132A&B mutants. The data set is classed as cell-based, Pseudomonas aeruginosa. To be noted: Class IV, 3OC12-HSL 2 μM, C4-HSL 5 μM.
A further data set relates to qsc133A&B (AcrB). Briefly: Acyl-HSL induction of β-galactosidase in qsc133A&B mutants. Format: cell-based, Pseudomonas aeruginosa. To be noted: Class IV, 3OC12-HSL 2 μM, C4-HSL 5 μM.
For data set [13], the system named is qsc134 (Saframycin Mx1 synthetase A). Nature of the data set: Acyl-HSL induction of β-galactosidase in qsc134 mutant. The data set is classed as cell-based, Pseudomonas aeruginosa. To be noted: qsc134, Class IV; 3OC12-HSL 2 μM, C4-HSL 5 μM.
For data set [14], the system named is qsc135 (Cytochrome C precursor). Briefly: Acyl-HSL induction of β-galactosidase in qsc135 mutant. The data set is classed as cell-based, Pseudomonas aeruginosa. To be noted: qsc135, Class IV; 3OC12-HSL 2 μM, C4-HSL 5 μM.
In data set [15] the test system is qsc137 (Asparagine synthetase). Briefly: Acyl-HSL induction of β-galactosidase in qsc137 mutant. Particulars: qsc137, Class IV; 3OC12-HSL 2 μM, C4-HSL 5 μM. Format: cell-based, Pseudomonas aeruginosa.
Another data set concerns qsc138. Briefly: Acyl-HSL induction of β-galactosidase in qsc138 mutant. Format: cell-based, Pseudomonas aeruginosa. To be noted: qsc138, Class IV; 3OC12-HSL 2 μM, C4-HSL 5 μM.
In data set [16] the test system is qsc122A&B (Cytochrome p450). Particulars: Class III, 3OC12-HSL 2 μM, C4-HSL 5 μM.

Take `CCCCCCCCCC(=O)CC(=O)N[C@H]1CCOC1=O` [3OC12-HSL, N-(3-oxododecanoyl) homoserine lactone]: the “Signal response (β-galactosidase activity with signal(s) divided by activity without added signals), maximum” value in data set [1] is listed as 65; in the data set with qsc101 it was 145; in data set [2], 7; in the data set on qsc107, 44; in the data set on qsc108 (ORF 5), 13; in data set [3], 11. Also, the “Signal response (β-galactosidase activity with signal(s) divided by activity without added signals), maximum” value in data set [4] turned out to be 15; in data set [5] it was 5; in the data set on qsc114, 9; in data set [6] it was 3; in data set [7] it was 13; in [8] it was 14. The “Signal response (β-galactosidase activity with signal(s) divided by activity without added signals), maximum” value in data set [9] was 35; in data set [10], 20; in the data set on qsc127, 5; in data set [11], 19; with qsc131 (PhzC) it was 50; in data set [12] it was 1. Also, the “Signal response (β-galactosidase activity with signal(s) divided by activity without added signals), maximum” value is 1 in the data set with qsc133A&B (AcrB); 6 in data set [13]; 3 in data set [14]; 1 in [15]; 3 with qsc138; 2 in data set [16].
In the case of `CCCC(=O)N[C@H]1CCOC1=O` [C4-HSL, butanoyl-HSL], the “Signal response (β-galactosidase activity with signal(s) divided by activity without added signals), maximum” value stood at 3 in data set [1]; 1 in the data set on qsc101; 2 in data set [2]; 2 with qsc107; 1 in the data set on qsc108 (ORF 5); 1 in [3]. In addition, the “Signal response (β-galactosidase activity with signal(s) divided by activity without added signals), maximum” value is 1 in [4]; 1 in data set [5]; 1 with qsc114; 7 in [6]; 27 in data set [7]; 28 in [8]. Further, the “Signal response (β-galactosidase activity with signal(s) divided by activity without added signals), maximum” value in data set [9] is reported as 50; in data set [10] it was 65; with qsc127 it was 2; in data set [11], 12; with qsc131 (PhzC) it was 168; in data set [12], 1. For the same molecule, the “Signal response (β-galactosidase activity with signal(s) divided by activity without added signals), maximum” value in the data set with qsc133A&B (AcrB) came out at 1; in [13] it was 1; in [14], 1; in [15] it was 1; with qsc138, 5; in [16], 10.

Values taken from patent US6855513B1 (priority 1999, dated 2005).
